The test system of assay [1] is P. berghei-ANKA-GFP-LucCON liver stage parasites in HepG2-A16-CD81EGFP cells. Description: P. berghei liver stage Pb-Luc assay, Method 1 (UCSD, 1536-well). The format is cell-based, Plasmodium berghei. The settings on record: Plasmodium berghei, 48 h, P. berghei liver stage, average of 2 wells on a 1536 well plate; for activity at 1 µM: 1 µM compound treatment (10 mM stocks); for activity at 3 µM: 3 µM compound treatment (10 mM stocks).

For assay [2], the system named is Plasmodium falciparum Dd2 asexual blood stage parasites. Description: microbe, parasite or virus in culture. Set-up: species or system Plasmodium falciparum Dd2 in human erythrocytes; single determination (one 11-point concentration-response curve). To be noted: Plasmodium falciparum, DD2, Erythrocyte, 72 h; read-out: AC50.
The subject of the next assay is HepG2-A16-CD81EGFP cells. The settings on record: average of 2 wells; for HepG2 1uM growth rep1 / HepG2 1uM growth rep2: HepG2, 1 µM compound treatment (10 mM stocks); for HepG2 1uM growth rep1 / HepG2 3uM growth rep1: replicate 1, normalized; for HepG2 1uM growth rep2 / HepG2 3uM growth rep2: replicate 2, normalized; for HepG2 3uM growth rep1 / HepG2 3uM growth rep2: HepG2, 3 µM compound treatment (10 mM stocks).

[3] abbreviates: replicate 1, normalized, read-out: PbLuc 1uM growth rep1.
[4] abbreviates: replicate 2, normalized, read-out: PbLuc 1uM growth rep2.
Where [5] appears, read: replicate 1, normalized, read-out: PbLuc 3uM growth rep1.
Setting [6] is: replicate 2, normalized, read-out: PbLuc 3uM growth rep2.

SMILES strings stand for the structures. Read-outs that look alike come from different tables or passages of the source.

A word on the AC50: it is the concentration at which the activity in the assay is half-maximal. For the compound `O=C(CSc1nc(Nc2ccccc2)nc(N2CCOCC2)n1)Nc1cc(Cl)ccc1O` [MLS001035450-01], the activity at 1 µM in assay [1] (setting [3]) came to 97%. Besides, the activity at 1 µM in assay [1] (setting [4]) came out at 93%. Moreover, the activity at 3 µM in assay [1] (setting [5]) turned out to be 67%. The activity at 3 µM in assay [1] (setting [6]) was 102%. Besides, the AC50 in assay [2] is 2.37 µM. In addition, in the assay with HepG2-A16-CD81EGFP cells, the “HepG2 1uM growth rep1” value was 100%, the “HepG2 1uM growth rep2” value is recorded as 92%, the “HepG2 3uM growth rep1” value turned out to be 83% and the “HepG2 3uM growth rep2” value is recorded as 88%.

In the case of `O=C(c1ccc([N+](=O)[O-])o1)N1CCN(c2nc3c(Cl)cccc3s2)CC1` [MLS001234208-01], in assay [1] (setting [3]), the activity at 1 µM came to 67%. For the same compound, the activity at 1 µM in assay [1] (setting [4]) stood at 72%. The activity at 3 µM in assay [1] (setting [5]) came out at 36%. Besides, in assay [1] (setting [6]), the activity at 3 µM stood at 52%. Also, the AC50 in assay [2] was found to be 4.22 µM. In the assay with HepG2-A16-CD81EGFP cells, the “HepG2 1uM growth rep1” value is recorded as 103%, the “HepG2 1uM growth rep2” value is 93%, the “HepG2 3uM growth rep1” value was 86% and the “HepG2 3uM growth rep2” value is listed as 94%.

Consider `C/C(=N\Nc1nc(-c2ccccc2O)nc2ccccc12)c1ccccc1` [MLS000714167-01], for which, in assay [1] (setting [3]), the activity at 1 µM was found to be 134%. Moreover, the activity at 1 µM in assay [1] (setting [4]) is 124%. For the same compound, the activity at 3 µM in assay [1] (setting [5]) worked out at 108%. In addition, in assay [1] (setting [6]), the activity at 3 µM stood at 121%. Further, the AC50 in assay [2] amounted to 0.75 µM. Besides, in the assay on HepG2-A16-CD81EGFP cells, the “HepG2 1uM growth rep1” value stood at 91%, the “HepG2 1uM growth rep2” value was 94%, the “HepG2 3uM growth rep1” value worked out at 91% and the “HepG2 3uM growth rep2” value came out at 97%.

With `CC(C)CCN(CCC(C)C)CC(O)Cn1c2ccccc2c(=O)c2ccccc21` (stereo not drawn) [MLS001030199-01], the activity at 1 µM in assay [1] (setting [3]) turned out to be 128%. Moreover, the activity at 1 µM in assay [1] (setting [4]) turned out to be 103%. Also, the activity at 3 µM in assay [1] (setting [5]) was 76%. Besides, the activity at 3 µM in assay [1] (setting [6]) is 87%. Also, the concentration at half-maximal activity (AC50) in assay [2] was determined as 1.88 µM. Moreover, in the assay with HepG2-A16-CD81EGFP cells, the “HepG2 1uM growth rep1” value stood at 105%, the “HepG2 1uM growth rep2” value was found to be 96%, the “HepG2 3uM growth rep1” value was found to be 84% and the “HepG2 3uM growth rep2” value was 94%.

Consider `CCCC(C)C(=O)Nc1ncc(S(=O)(=O)c2ccc([N+](=O)[O-])cc2)s1` (stereo not drawn) [MLS001034555-01], for which, in assay [1] (setting [3]), the activity at 1 µM came out at 109%. In addition, in assay [1] (setting [4]), the activity at 1 µM was determined as 117%. Further, the activity at 3 µM in assay [1] (setting [5]) was determined as 105%. Moreover, in assay [1] (setting [6]), the activity at 3 µM is 136%. The AC50 in assay [2] was found to be 5.96 µM. In addition, in the assay on HepG2-A16-CD81EGFP cells, the “HepG2 1uM growth rep1” value was 95%, the “HepG2 1uM growth rep2” value was 92%, the “HepG2 3uM growth rep1” value came to 93% and the “HepG2 3uM growth rep2” value amounted to 94%.

Turning to `O=C(Nc1ccc(C2=NCCN2)cc1)c1ccc(C(=O)Nc2ccc(C3=NCCN3)cc2)c(Cl)c1` [MLS000737368-01], the activity at 1 µM in assay [1] (setting [3]) turned out to be 107%. The activity at 1 µM in assay [1] (setting [4]) was determined as 94%. Further, the activity at 3 µM in assay [1] (setting [5]) came to 72%. For the same compound, in assay [1] (setting [6]), the activity at 3 µM is 81%. The half-maximal activity concentration (AC50) in assay [2] amounted to 0.473 µM. In the assay on HepG2-A16-CD81EGFP cells, the “HepG2 1uM growth rep1” value was 102%, the “HepG2 1uM growth rep2” value worked out at 94%, the “HepG2 3uM growth rep1” value is given as 85% and the “HepG2 3uM growth rep2” value is 95%.

For `COc1ccc(OC)c(-n2c(S)nnc2-c2cccc(O)c2)c1` [MLS000089016-01], the activity at 1 µM in assay [1] (setting [3]) worked out at 141%. The activity at 1 µM in assay [1] (setting [4]) came out at 98%. Moreover, in assay [1] (setting [5]), the activity at 3 µM is 86%. For the same compound, in assay [1] (setting [6]), the activity at 3 µM is 109%. Moreover, in assay [2], the AC50 was found to be 4.22 µM. Further, in the assay on HepG2-A16-CD81EGFP cells, the “HepG2 1uM growth rep1” value was 97%, the “HepG2 1uM growth rep2” value worked out at 93%, the “HepG2 3uM growth rep1” value is 90% and the “HepG2 3uM growth rep2” value turned out to be 96%.

For `COc1cccc(C2C3=C(N=c4sc(=Cc5ccccc5O)c(=O)n42)c2ccccc2CC3)c1OC` (stereo not drawn) [MLS000580951-01], the activity at 1 µM in assay [1] (setting [3]) was found to be 115%. Moreover, the activity at 1 µM in assay [1] (setting [4]) was 99%. The activity at 3 µM in assay [1] (setting [5]) was 96%. Besides, in assay [1] (setting [6]), the activity at 3 µM was determined as 91%. The AC50 in assay [2] came out at 2.99 µM. In the assay on HepG2-A16-CD81EGFP cells, the “HepG2 1uM growth rep1” value was found to be 91%, the “HepG2 1uM growth rep2” value amounted to 93%, the “HepG2 3uM growth rep1” value was 90% and the “HepG2 3uM growth rep2” value worked out at 96%.

Consider `CCOc1ccccc1NC(=O)Cn1c(-c2ccc(Cl)cc2)noc1=O` [MLS000529487-01], for which the activity at 1 µM in assay [1] (setting [3]) is 100%. Also, the activity at 1 µM in assay [1] (setting [4]) is 128%. For the same compound, the activity at 3 µM in assay [1] (setting [5]) came to 102%. Moreover, in assay [1] (setting [6]), the activity at 3 µM is 133%. Further, the half-maximal activity concentration (AC50) in assay [2] stood at 5.96 µM. In the assay on HepG2-A16-CD81EGFP cells, the “HepG2 1uM growth rep1” value worked out at 101%, the “HepG2 1uM growth rep2” value was determined as 91%, the “HepG2 3uM growth rep1” value is 84% and the “HepG2 3uM growth rep2” value amounted to 90%.

`COc1ccc(Nc2cc(C)nc(NCc3ccccc3)n2)cc1` [MLS000768693-01]: the activity at 1 µM in assay [1] (setting [3]) amounted to 94%. In addition, the activity at 1 µM in assay [1] (setting [4]) worked out at 74%. In addition, the activity at 3 µM in assay [1] (setting [5]) was 21%. In addition, in assay [1] (setting [6]), the activity at 3 µM was determined as 35%. Further, in assay [2], the AC50 is 13.3 µM. Moreover, in the assay with HepG2-A16-CD81EGFP cells, the “HepG2 1uM growth rep1” value was determined as 90%, the “HepG2 1uM growth rep2” value was found to be 91%, the “HepG2 3uM growth rep1” value was 82% and the “HepG2 3uM growth rep2” value turned out to be 84%.

For `COc1ccc([C@@]2(C(C)C)ON(c3ccccc3C(F)(F)F)C2=O)cc1` [MLS002206606-01], the activity at 1 µM in assay [1] (setting [3]) was 98%. In assay [1] (setting [4]), the activity at 1 µM came out at 100%. In assay [1] (setting [5]), the activity at 3 µM is 88%. The activity at 3 µM in assay [1] (setting [6]) was determined as 122%. The AC50 in assay [2] was 4.22 µM. Also, in the assay on HepG2-A16-CD81EGFP cells, the “HepG2 1uM growth rep1” value is recorded as 102%, the “HepG2 1uM growth rep2” value is given as 93%, the “HepG2 3uM growth rep1” value is reported as 83% and the “HepG2 3uM growth rep2” value is recorded as 85%.

As for `N#Cc1c(N2CCN(c3ccc(F)cc3)CC2)nc(N)c2c(N)nc3c(c12)CC(=O)N3C1CC1` [MLS001003889-01], in assay [1] (setting [3]), the activity at 1 µM came out at 114%. For the same compound, the activity at 1 µM in assay [1] (setting [4]) was 88%. In assay [1] (setting [5]), the activity at 3 µM was found to be 44%. In addition, the activity at 3 µM in assay [1] (setting [6]) amounted to 56%. Also, the AC50 in assay [2] turned out to be 0.668 µM. In the assay with HepG2-A16-CD81EGFP cells, the “HepG2 1uM growth rep1” value came to 108%, the “HepG2 1uM growth rep2” value stood at 97%, the “HepG2 3uM growth rep1” value was 85% and the “HepG2 3uM growth rep2” value is 94%.

With `Cc1ccc(-c2cc(C(F)(F)F)n3ncc(C(=O)N4CCCCC4c4cccnc4)c3n2)cc1` (stereo not drawn) [MLS000729132-01], the activity at 1 µM in assay [1] (setting [3]) worked out at 126%. For the same compound, the activity at 1 µM in assay [1] (setting [4]) was determined as 132%. Moreover, in assay [1] (setting [5]), the activity at 3 µM amounted to 100%. Besides, the activity at 3 µM in assay [1] (setting [6]) stood at 119%. Also, the AC50 in assay [2] amounted to 1.88 µM. Moreover, in the assay with HepG2-A16-CD81EGFP cells, the “HepG2 1uM growth rep1” value is reported as 101%, the “HepG2 1uM growth rep2” value was found to be 94%, the “HepG2 3uM growth rep1” value turned out to be 89% and the “HepG2 3uM growth rep2” value was determined as 91%.

Take `COc1cccc2sc(N3CCN(C(=O)c4ccc([N+](=O)[O-])o4)CC3)nc12` [MLS001234267-01]: the activity at 1 µM in assay [1] (setting [3]) was 111%. In assay [1] (setting [4]), the activity at 1 µM worked out at 94%. Besides, in assay [1] (setting [5]), the activity at 3 µM amounted to 69%. In addition, the activity at 3 µM in assay [1] (setting [6]) worked out at 79%. The AC50 in assay [2] turned out to be 4.73 µM. Moreover, in the assay with HepG2-A16-CD81EGFP cells, the “HepG2 1uM growth rep1” value stood at 103%, the “HepG2 1uM growth rep2” value was found to be 96%, the “HepG2 3uM growth rep1” value is reported as 94% and the “HepG2 3uM growth rep2” value came out at 93%.

These data come from article PMC7822874, “Chemoprotective antimalarials identified through quantitative high-throughput screening of Plasmodium blood and liver stage parasites” (Scientific Reports, 2021).
